Experimental data as given in ChEMBL document CHEMBL1201862, “PubChem BioAssay data set” (2004).
Active and inactive are the calls of the source.

Experiments:
[1] = molecular target: Photoreceptor-specific nuclear receptor (Homo sapiens, UniProt Q9Y5X4); format: functional, cell-based;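 further: CHO-S cells with Gal4-NCOR and VP16-NR2E3 two-hybrid luciferase reporter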
[2] = molecular target: T1, Sentrin-specific protease 1 (Homo sapiens, UniProt Q9P0U3); assay: Dose response confirmation of small molecule inhibitors of the catalytic domain of the SUMO protease, SENP1 in a FRET assay.; format: functional; conditions: read-out: IC50_Mean
T1 sequence (Q9P0U3 whole entry, the tested form may be a part): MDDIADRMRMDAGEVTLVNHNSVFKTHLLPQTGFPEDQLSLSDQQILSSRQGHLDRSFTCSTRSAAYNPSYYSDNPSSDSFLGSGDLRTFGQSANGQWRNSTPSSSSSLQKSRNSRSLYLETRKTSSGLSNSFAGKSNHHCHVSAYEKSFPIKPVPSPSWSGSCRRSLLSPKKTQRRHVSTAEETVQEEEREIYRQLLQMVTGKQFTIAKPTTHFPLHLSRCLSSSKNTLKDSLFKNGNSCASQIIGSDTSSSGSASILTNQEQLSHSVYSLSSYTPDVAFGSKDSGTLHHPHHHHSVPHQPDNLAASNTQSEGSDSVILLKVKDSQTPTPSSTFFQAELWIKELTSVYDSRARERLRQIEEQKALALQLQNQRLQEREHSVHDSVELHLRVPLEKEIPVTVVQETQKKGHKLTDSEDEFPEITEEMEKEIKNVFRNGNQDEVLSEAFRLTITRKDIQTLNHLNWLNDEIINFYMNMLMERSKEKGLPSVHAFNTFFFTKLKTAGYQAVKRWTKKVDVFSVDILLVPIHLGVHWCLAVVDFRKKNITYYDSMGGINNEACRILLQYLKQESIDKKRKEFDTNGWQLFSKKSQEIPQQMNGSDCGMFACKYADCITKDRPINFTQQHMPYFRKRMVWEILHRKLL

[3] = molecular target: T1, Sentrin-specific protease 1; assay: SENP1 catalytic domain blockers, concentration series – biochemical, kinetic FRET, dose response (AID 651697); format: functional; conditions: read-out: IC50_Mean
[4] = molecular target: T2, RNA-binding protein pos-1 (Caenorhabditis elegans, UniProt G5EF15); assay: disruptors of C. elegans POS-1 RNA interaction – biochemical, fluorescence polarization, dose response (AID 1964);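 further: purified POS-1 fused to maltose binding protein made in E. coli; potency of compounds blocking POS-1 binding to fluorescent RNA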
T2 sequence (G5EF15 whole entry): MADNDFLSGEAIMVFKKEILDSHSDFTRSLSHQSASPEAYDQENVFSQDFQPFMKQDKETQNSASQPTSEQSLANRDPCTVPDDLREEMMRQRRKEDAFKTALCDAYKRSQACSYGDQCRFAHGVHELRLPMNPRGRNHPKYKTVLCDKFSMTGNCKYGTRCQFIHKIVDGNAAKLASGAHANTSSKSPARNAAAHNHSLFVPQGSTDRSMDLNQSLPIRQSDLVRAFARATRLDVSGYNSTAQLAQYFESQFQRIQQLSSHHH

[5] = molecular target: T3, Zinc finger protein mex-5 (Caenorhabditis elegans, UniProt Q9XUB2); assay: potency of MEX-5 RNA-binding blockers – biochemical, C. elegans, fluorescence polarization, dose response (AID 1960)
T3 sequence (Q9XUB2 whole entry): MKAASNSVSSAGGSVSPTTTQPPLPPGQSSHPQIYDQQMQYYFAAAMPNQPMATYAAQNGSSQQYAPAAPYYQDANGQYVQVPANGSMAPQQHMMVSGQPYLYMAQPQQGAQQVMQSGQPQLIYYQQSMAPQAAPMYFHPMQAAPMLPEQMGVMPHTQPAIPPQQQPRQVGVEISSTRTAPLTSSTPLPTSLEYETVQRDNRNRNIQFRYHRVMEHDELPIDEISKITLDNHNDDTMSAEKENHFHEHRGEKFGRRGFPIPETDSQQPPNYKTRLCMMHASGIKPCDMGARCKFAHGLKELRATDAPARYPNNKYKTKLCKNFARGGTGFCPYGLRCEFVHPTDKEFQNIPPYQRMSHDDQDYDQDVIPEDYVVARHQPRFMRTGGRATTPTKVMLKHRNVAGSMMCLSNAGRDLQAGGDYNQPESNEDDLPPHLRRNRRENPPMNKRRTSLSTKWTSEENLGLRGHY

[6] = molecular target: Tyrosine-protein phosphatase non-receptor type 11 (Homo sapiens, UniProt Q06124); assay: PTPN11 enzyme inhibitors – biochemical, selectivity assay for STEP inhibitor project, dose response (AID 602367); format: functional; conditions: read-out: IC50_Mean
Chain of Tyrosine-protein phosphatase non-receptor type 11 (Q06124 whole entry): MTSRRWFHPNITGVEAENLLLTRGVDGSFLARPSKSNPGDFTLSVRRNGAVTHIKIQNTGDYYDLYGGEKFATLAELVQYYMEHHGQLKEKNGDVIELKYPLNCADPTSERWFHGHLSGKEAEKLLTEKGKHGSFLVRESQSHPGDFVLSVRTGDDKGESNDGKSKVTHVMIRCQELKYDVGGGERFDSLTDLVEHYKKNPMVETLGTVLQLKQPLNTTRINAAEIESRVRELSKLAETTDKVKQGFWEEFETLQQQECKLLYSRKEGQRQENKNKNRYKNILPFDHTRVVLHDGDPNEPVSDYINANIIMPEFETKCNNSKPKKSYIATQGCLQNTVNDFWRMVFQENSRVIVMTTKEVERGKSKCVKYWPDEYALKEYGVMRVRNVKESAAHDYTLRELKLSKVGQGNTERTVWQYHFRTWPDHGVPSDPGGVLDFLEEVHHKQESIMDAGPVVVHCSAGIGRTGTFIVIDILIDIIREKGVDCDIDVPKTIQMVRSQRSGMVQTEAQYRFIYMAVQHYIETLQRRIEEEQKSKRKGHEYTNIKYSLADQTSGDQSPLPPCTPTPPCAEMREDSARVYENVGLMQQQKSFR

[7] = molecular target: Tyrosine-protein phosphatase non-receptor type 5 (Homo sapiens, UniProt P54829); assay: PTPN5 enzyme inhibition – biochemical, fluorescence intensity, uHTS hits, confirmation (AID 602372); format: functional; conditions: read-out: IC50_Mean
Chain of Tyrosine-protein phosphatase non-receptor type 5 (P54829 whole entry): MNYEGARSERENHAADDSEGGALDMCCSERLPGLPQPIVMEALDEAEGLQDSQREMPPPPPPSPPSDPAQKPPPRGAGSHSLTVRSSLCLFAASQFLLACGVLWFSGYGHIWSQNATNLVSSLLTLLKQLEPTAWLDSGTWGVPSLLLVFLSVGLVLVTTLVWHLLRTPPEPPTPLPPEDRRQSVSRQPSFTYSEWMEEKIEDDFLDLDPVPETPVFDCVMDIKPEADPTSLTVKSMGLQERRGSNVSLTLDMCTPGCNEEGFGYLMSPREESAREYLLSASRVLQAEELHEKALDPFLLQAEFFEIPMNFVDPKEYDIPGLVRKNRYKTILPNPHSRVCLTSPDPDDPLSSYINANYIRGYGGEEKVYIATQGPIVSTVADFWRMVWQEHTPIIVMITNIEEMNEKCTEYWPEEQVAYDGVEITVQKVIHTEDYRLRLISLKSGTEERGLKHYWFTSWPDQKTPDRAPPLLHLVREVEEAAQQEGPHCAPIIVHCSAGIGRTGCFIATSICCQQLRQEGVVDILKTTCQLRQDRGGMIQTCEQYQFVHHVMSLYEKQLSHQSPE

[8] = molecular target: T4, Tyrosine-protein phosphatase non-receptor type 22 (Homo sapiens, UniProt Q9Y2R2); assay: lymphoid phosphatase LYP inhibitors – biochemical, selectivity assay for STEP inhibitor project, dose response (AID 624241); format: functional
T4 sequence (Q9Y2R2 whole entry): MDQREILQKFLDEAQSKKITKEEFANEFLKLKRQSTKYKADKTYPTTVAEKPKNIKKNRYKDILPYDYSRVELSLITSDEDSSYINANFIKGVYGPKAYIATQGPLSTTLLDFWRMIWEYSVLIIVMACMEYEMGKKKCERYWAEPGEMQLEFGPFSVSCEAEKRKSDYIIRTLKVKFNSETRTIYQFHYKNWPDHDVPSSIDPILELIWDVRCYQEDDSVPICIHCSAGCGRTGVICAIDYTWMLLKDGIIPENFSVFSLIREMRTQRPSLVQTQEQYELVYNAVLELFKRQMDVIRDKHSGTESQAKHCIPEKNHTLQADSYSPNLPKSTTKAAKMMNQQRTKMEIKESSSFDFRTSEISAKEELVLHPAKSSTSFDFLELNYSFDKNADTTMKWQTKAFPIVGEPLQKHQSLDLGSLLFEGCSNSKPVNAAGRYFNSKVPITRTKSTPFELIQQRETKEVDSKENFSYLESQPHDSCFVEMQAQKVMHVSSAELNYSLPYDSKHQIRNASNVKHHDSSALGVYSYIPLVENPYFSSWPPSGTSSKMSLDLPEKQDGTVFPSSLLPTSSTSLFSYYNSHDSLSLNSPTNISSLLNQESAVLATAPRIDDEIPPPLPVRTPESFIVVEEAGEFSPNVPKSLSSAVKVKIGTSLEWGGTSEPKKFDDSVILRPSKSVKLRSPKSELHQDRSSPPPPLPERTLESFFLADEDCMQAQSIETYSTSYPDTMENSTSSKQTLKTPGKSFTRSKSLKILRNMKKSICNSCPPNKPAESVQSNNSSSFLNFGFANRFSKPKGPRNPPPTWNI

[9] = molecular target: Dual specificity protein phosphatase 3 (Homo sapiens, UniProt P51452); assay: VHR phosphatase inhibition, dose response, selectivity assay for STEP inhibitor project, biochemical (AID 602374); format: functional; conditions: read-out: IC50_Mean
Chain of Dual specificity protein phosphatase 3 (P51452 whole entry): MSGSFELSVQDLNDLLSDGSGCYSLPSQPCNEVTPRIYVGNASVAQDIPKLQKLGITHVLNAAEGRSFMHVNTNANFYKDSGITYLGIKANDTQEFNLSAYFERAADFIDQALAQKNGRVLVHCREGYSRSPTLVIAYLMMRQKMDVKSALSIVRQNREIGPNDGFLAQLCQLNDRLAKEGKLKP

[10] = molecular target: T5, Caspase-3 (Homo sapiens, UniProt P42574); assay: Dose-response confirmation of uHTS inhibitor hits of Sentrin-Specific Protease 8 in a Caspase-3 Fluorescence assay.; format: functional
T5 sequence (P42574 whole entry): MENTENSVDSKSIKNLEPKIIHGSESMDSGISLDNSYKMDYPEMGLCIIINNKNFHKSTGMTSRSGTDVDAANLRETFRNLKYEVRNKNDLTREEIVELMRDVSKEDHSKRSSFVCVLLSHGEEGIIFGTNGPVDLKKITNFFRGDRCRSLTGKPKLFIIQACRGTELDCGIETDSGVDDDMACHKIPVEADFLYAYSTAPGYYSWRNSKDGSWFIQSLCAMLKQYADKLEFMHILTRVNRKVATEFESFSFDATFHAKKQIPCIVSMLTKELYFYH

[11] = molecular target: T6, Sentrin-specific protease 8 (Homo sapiens, UniProt Q96LD8); format: functional
T6 sequence (Q96LD8 whole entry): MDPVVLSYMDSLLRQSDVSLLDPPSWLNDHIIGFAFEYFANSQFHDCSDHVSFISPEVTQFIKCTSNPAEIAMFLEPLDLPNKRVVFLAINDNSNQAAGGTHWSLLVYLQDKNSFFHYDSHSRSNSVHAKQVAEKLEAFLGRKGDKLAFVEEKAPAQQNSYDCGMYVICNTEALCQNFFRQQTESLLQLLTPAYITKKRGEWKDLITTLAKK

[12] = molecular target: T6, Sentrin-specific protease 8; format: functional; remark: listed apart in the source
[13] = molecular target: Potassium voltage-gated channel subfamily KQT member 2 (Rattus norvegicus, UniProt O88943); assay: blockers of KCNQ2 channel current – cell-based, automated electrophysiology, set II, rat KCNQ2, dose response (AID 588637); format: functional
Chain of Potassium voltage-gated channel subfamily KQT member 2 (O88943 whole entry): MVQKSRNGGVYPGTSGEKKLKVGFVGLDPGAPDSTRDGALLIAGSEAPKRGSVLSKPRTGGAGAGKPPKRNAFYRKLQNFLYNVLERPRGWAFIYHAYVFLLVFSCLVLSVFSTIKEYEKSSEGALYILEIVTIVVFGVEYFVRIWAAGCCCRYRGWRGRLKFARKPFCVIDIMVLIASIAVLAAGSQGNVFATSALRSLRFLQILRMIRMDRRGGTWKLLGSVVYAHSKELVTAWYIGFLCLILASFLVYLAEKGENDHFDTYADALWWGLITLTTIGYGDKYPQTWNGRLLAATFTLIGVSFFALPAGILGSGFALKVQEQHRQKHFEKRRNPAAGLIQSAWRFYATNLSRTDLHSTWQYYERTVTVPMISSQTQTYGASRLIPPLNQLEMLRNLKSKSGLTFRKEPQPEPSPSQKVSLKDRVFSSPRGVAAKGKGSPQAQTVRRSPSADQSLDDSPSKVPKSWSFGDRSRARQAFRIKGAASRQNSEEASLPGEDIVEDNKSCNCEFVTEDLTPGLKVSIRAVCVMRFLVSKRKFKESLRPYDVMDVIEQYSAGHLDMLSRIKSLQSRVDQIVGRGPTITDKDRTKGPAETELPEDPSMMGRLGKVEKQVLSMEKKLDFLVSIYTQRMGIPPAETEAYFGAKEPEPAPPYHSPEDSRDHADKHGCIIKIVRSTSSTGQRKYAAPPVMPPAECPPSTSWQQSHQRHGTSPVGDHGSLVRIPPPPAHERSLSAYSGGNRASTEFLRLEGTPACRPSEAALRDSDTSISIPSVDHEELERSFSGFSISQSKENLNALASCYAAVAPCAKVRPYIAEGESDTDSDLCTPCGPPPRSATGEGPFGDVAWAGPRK

[14] = activation of miR-122 Renilla sensor silencing – cell-based, Huh7 psiCHECK-miR122, Renilla luciferase, cherry-picked, dose response (AID 651956); format: functional;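 further: huh7 hepatoma cells stably carrying a psiCHECK-2 miR-122 sensor plasmid; renilla luciferase signal reporting endogenous miR-122 activity after 48 h compound exposure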

Chain of Photoreceptor-specific nuclear receptor (Q9Y5X4 whole entry, the tested form may be a part): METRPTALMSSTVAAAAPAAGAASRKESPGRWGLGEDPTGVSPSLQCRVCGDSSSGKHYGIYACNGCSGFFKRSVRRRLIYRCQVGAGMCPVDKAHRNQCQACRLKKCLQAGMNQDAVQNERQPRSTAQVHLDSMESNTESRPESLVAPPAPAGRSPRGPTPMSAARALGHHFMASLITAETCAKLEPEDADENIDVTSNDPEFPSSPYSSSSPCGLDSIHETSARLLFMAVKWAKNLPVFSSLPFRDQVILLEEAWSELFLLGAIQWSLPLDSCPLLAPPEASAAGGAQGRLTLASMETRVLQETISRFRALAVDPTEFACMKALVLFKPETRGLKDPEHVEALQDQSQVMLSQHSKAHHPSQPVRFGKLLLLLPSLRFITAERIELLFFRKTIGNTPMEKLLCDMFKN

In the case of `Cc1noc(C)c1S(=O)(=O)Nc1ccc(C(=O)N2CCN(c3ccc(Cl)cc3)CC2)cc1`, the IC50 [1] is reported as 11.7 µM (inactive).

With `CC(C)CNC(=O)c1ccc(C2SCC(=O)N2Cc2ccccc2)cc1` (centres undefined) the IC50 [2] was 16.7 µM (active), the IC50 [3] was 21.5 µM (inactive) and the EC50 [4] was > 300 µM (not active). The EC50 [5] was > 300 µM (not active).

In the case of `CN(C)c1ccc(C(=S)N2CCN(Cc3ccccc3)CC2)cc1`, the IC50 [6] is reported as 3.25 µM (active), the IC50 [7] is reported as 23.6 µM (inactive) and the IC50 [8] is reported as 45.6 µM (inactive). For the same compound, the IC50 [9] was 0.937 µM (active).

For `COc1ccc2c(c1)Cc1sc(NC(=O)c3cccnc3)nc1-2`, the IC50 [10] was 29.2 µM (active), the IC50 [11] was 7.97 µM (active) and the IC50 [12] was 3.66 µM (active).

With `CCN(CC)S(=O)(=O)c1ccc(N2CCOCC2)c(NC(=S)NC(=O)c2ccco2)c1` the IC50 [13] was 0.824 µM (active).

For `CCCC(NS(=O)(=O)c1ccc(Br)cc1)C(=O)O` (centres undefined), the AC50 [14] was 1.68 µM (active).
